Data set [1] can be described thus: Zn^++ ion binding with A1 peptide by light-scattering method. Type of data set: physicochemical. The settings on record: Zn(NO3)2; light scattering at 400 nm; aggregates dissolve on adding EDTA. The source says:
Zn^++ ion binding with alloferon 1 (A1) and its homologs was studied by the method described [Shi Y., Beger R. D., Berg J. M. Metal binding properties of single amino acid deletion mutants of zinc finger peptides: studies using cobalt(II) as a spectroscopic prob. Biophys. J., 1993, Vol. 64, p. 749-753]. Zn^++ ion binding with A1 peptide was studied by the light-scattering method using ISS, Campaign, IL fluorimeter at 400 nm and excitation light 398 nm.
For analysis conditions refer to Shi Y. et al. (1993)
A—(open circles) A1 and Zn(N03)2. interaction Excess molar quantity of Zn^++ ion comparing to peptide was 1:10. Firm line—peptide enrichment with Zn^+ ion. Ground peptide mass changed into aggregates with complete enrichment. EDTA was added to aggregates. Subsequent to addition of EDTA the complex quickly dissociated and peptide (alloferon) changed to soluble phase.

The test system of the next data set is Type I interferons. The data set can be described thus: Type I interferons induction. The settings on record: FIG. 6. The source says: Type I interferons induction was studied by the previously published method [F. I. Yershov., O. I. Kiselev. Interferons and their inducers (from the molecule to the drug) M.: Publ. House. Geotar—Media, 2005-P. 356, Chernysh et al. 2002].

Data set [2] deals with A/Aichi/2/68 (H3N2) flu strain. The data set is classed as in vivo, white mice.

No end group written: not given here.

Regarding “HGVSGHGQHGVHG [Alloferon A1, nonmodified base peptide]”, the “diameter of polydisperse nanoparticles formed on peptide aggregation with Zn^++” value in data set [1] is listed as 50-60 nm. The interferon induction activity entry in the data set on Type I interferons was “quite high level of interferon induction ability”. Moreover, in data set [2] (mouse, in vivo), the “protective effect (in words)” value was “comparable to efficiency of the protective effect of reference drug Remantadin”.
Regarding `CC(N)C12CC3CC(CC(C3)C1)C2` (stereo not shown) [Remantadin], the protective effect in data set [2] ([…], mice observed 15 days) is listed as 80-87%.

The values above are taken from patent US9499585B2, “Bioactive peptide complexes” (priority 2012, dated 2016).
